We go through one substance from patent publication US7888389B2 (The Regents of the University of Michigan, priority 2002, dated 2011).

Series [1] in a line: Open label study of TM for initial treatment of Wilson's disease. It counts as in vivo, human. The source says:
The inventors have carried out an open label study of the use of TM for initial treatment of neurologically presenting Wilson's disease patients for the past several years. The inventors have developed both a spectrophotometric and bioassay for the activity of the drug, to evaluate stability, and assure potency of the drug being administered (Brewer et al., 1991a; Brewer et al., 1994b). The drug slowly loses potency when exposed to air.
The inventors have now treated a total of 51 Wilson's disease patients with TM, all of whom presented with neurological or psychiatric disease, in an open label study. These patients were all diagnosed by standard criteria. […] Some of them were treated briefly with other agents prior to this trial. Two patients had psychiatric but not neurological symptoms.
With three exceptions in the earliest part of the study, all patients received a dose of 20 mg tid with meals, or qid with three meals and a snack. Thus, the only difference between a patient receiving 120 mg and 140 mg total dose is that the former was receiving 20 mg tid, or 60 mg, with meals, and the latter was receiving 20 mg qid, or 80 mg with meals plus a snack. The rest of the total daily dose was divided up into three equal doses and given between meals.

The conditions of series [2]: late stages of liver disease; cited from earlier work.
[3] abbreviates: among the seven patients with anemia.

As for tetrathiomolybdate [TM], the “cases of reversible anemia” value in series [1] (45 patients, eight weeks TM as initial therapy) is 11.1%. For the same substance, the “patients with reversible anemia/bone marrow depression” value in series [1] (51 patients treated) is “seven”. For the same substance, in series [1] (setting [3]), the “patients with reduction in platelet count” value is “Three” and the “patients with reduction in white blood cell count” value is given as “four”. Also, the overtreatment in series [1] (dose of 180 mg/day or over) is given as 6 of 37 patients. The overtreatment in series [1] (dose of 150 or lower) is 1 of 13 patients. The “time to close the plasma copper-molybdenum gap (free copper to zero)” value in series [1] (first patient) is 16 days. For the same substance, the “patients with elevation of transaminase values (AST, ALT)” value in series [1] (in vivo) is on record as “four”. For the same substance, the “quantitative speech exam scores” value in series [1] (initial 8 weeks of TM therapy) is listed as “No patient shows significant (more than 2.0 units) reduction in scores”. Also, in series [1] (the seven patients with anemia), the “average fall in hemoglobin” value was determined as 3.4 g %. Moreover, the “patients with significant neurological worsening (change of more than 5 units)” value in series [1] (weeks of TM administration) is recorded as 4 % of the sample. The “efficacy in LEC rats” value in series [2] is given as “very effective”.
